Experimental data published in patent US20250129062A1, “AMORPHOUS SUBSTANCES, CRYSTALS, PHARMACEUTICAL COMPOSITIONS, PREPARATION METHODS AND USES OF THIOHYDANTOIN COMPOUND OR PHARMACEUTICALLY ACCEPTABLE SALT THEREOF” (SUZHOU KINTOR PHARMACEUTICALS, INC., priority 2021, published 2025).
In brackets after ≈: the same amount, converted by molar mass. Where two headings read alike, the source gives them in different places.

Tests used:
Assay type in all cases: physicochemical
[1] = Solubility of amorphous substance in solvent systems (supersaturated solution, oscillated 24 h at room temperature, HPLC); conditions: for solubility at 24 h: thermodynamic from solid
Method: The amorphous substance of the compound of formula I was prepared into supersaturated solutions with different solvents, and oscillated under a room temperature condition (a constant temperature). After oscillating for 24 h, sampling was performed, and the content of the sample was detected by HPLC under condition 1.
Condition 1: • Chromatographic column: C18 (150 mm×4.6 mm×3.5 μm); • Mobile phase: binary mobile phase system, mobile phase A was 0.1% formic acid in water, mobile phase B was acetonitrile; • Elution time: 68 min; • Elution mode: gradient elution (in the gradient elution process, mobile phase A had the maximum volume percentage of 95% and the minimum volume percentage of 10%); • Detection wavelength: 270 nm.

[2] = High temperature stability experiment of amorphous substance (60° C.); conditions: 60° C. in the dark
Method: The amorphous substance of the compound of formula I prepared in example 1 was stored at 60° C. in the dark for 30 days, and the purity percentages were detected by HPLC on day 0, day 5, day 10 and day 30, respectively.

[3] = Long-term stability experiment of amorphous substance; conditions: for purity (HPLC): Long term
Method: (§1) Referring to ICH Q1A stability testing of new drug substances and products, the amorphous substance of the compound of formula I prepared in example 1 was subjected to a long-term stability experiment (experimental condition: 25±2° C., RH 60%=5%) and an accelerated stability experiment (experimental condition: 40±2° C., RH 75%=5%). The purity of the sample at different times was detected by HPLC under condition 2 to evaluate the physicochemical stability of the amorphous substance of the compound of formula I. The results were as shown in Table 18.
(§2) Condition 2: • Instruments: Agilent 1260; • Chromatographic column: C18 (150 mm×4.6 mm×3.5 μm); • column temperature: 45° C.; • Mobile phase: binary mobile phase system, mobile phase A was a 10 mM aqueous ammonium acetate solution (preparation method: ammonium acetate was added into purified water, and mixed evenly, and pH value was adjusted to 4.50±0.05 with acetic acid), mobile phase B was acetonitrile; • Elution mode: gradient elution, with specific procedures as shown in Table 17; • flow rate: 1.0 mL/min; • Injection volume: 5 μL; • Detection wavelength: 270 nm; • Data acquisition: OpenLab CDS2 software.

[4] = Accelerated stability experiment of amorphous substance; conditions: Acceleration
Method: as §1, §2

Which results are given for `Cc1ncsc1-c1ccc(CNC(=O)[C@@H]2C[C@@H](O)CN2C(=O)[C@@H](NC(=O)COCCCCOc2ccc(-c3ccc(N4C(=S)N(c5ccc(C#N)c(C(F)(F)F)c5F)C(=O)C4(C)C)cn3)cc2)C(C)(C)C)cc1`?
solubility at 24 h ([1]; dehydrated alcohol-propylene glycol-water solvent mixture, aqueous with cosolvent or surfactant or cyclodextrin, Dehydrated alcohol 50%-propylene glycol 10%-water 40% (w/w), read-out: Solubility): 77700 µg/mL (≈ 74.5 mM); solubility at 24 h ([1]; dehydrated alcohol-propylene glycol-water solvent mixture, aqueous with cosolvent or surfactant or cyclodextrin, Dehydrated alcohol 50%-propylene glycol 20%-water 30% (w/w), read-out: Solubility): > 77500 µg/mL; solubility at 24 h ([1]; dehydrated alcohol-propylene glycol-water solvent mixture, aqueous with cosolvent or surfactant or cyclodextrin, Dehydrated alcohol 50%-propylene glycol 30%-water 20% (w/w), read-out: Solubility): > 69300 µg/mL; solubility at 24 h ([1]; dehydrated alcohol-propylene glycol-water solvent mixture, aqueous with cosolvent or surfactant or cyclodextrin, Dehydrated alcohol 50%-propylene glycol 40%-water 10% (w/w), read-out: Solubility): > 67800 µg/mL; solubility at 24 h ([1]; dehydrated alcohol-propylene glycol-water solvent mixture, organic solvent or mixture, Dehydrated alcohol 50%-propylene glycol 50%-water 00% (w/w), read-out: Solubility): > 96000 µg/mL; solubility at 24 h ([1]; glycerin, organic solvent or mixture, solvent: Glycerin, read-out: 24 h solubility): 440 µg/mL (≈ 0.422 mM); solubility at 24 h ([1]; liquid paraffin, oil or lipid, solvent: Liquid paraffin, read-out: 24 h solubility): 10 µg/mL (≈ 0.00959 mM); solubility at 24 h ([1]; oleic acid, oil or lipid, solvent: Oleic acid, read-out: 24 h solubility): 1410 µg/mL (≈ 1.35 mM); solubility at 24 h ([1]; polyethylene glycol 400 (PEG400), organic solvent or mixture, solvent: Polyethylene glycol 400 (PEG400), read-out: 24 h solubility): 16000 µg/mL (≈ 15.4 mM); solubility at 24 h ([1]; propylene glycol, organic solvent or mixture, solvent: Propylene glycol, read-out: 24 h solubility): 12000 µg/mL (≈ 11.5 mM); solubility at 24 h ([1]; solvent mixture, aqueous with cosolvent or surfactant or cyclodextrin, Dehydrated alcohol 10%-PEG400 30%-water 60% (w/w), read-out: Solubility): 60 µg/mL (≈ 0.0575 mM); solubility at 24 h ([1]; solvent mixture, aqueous with cosolvent or surfactant or cyclodextrin, Dehydrated alcohol 10%-PEG400 40%-water 50% (w/w), read-out: Solubility): 280 µg/mL (≈ 0.268 mM); solubility at 24 h ([1]; solvent mixture, aqueous with cosolvent or surfactant or cyclodextrin, Dehydrated alcohol 10%-glycerin 10%-water 80% (w/w), read-out: Solubility): < 100 µg/mL; solubility at 24 h ([1]; solvent mixture, aqueous with cosolvent or surfactant or cyclodextrin, Dehydrated alcohol 10%-glycerin 20%-water 70% (w/w), read-out: Solubility): < 100 µg/mL; solubility at 24 h ([1]; solvent mixture, aqueous with cosolvent or surfactant or cyclodextrin, Dehydrated alcohol 10%-glycerin 30%-water 60% (w/w), read-out: Solubility): < 100 µg/mL; solubility at 24 h ([1]; solvent mixture, aqueous with cosolvent or surfactant or cyclodextrin, Dehydrated alcohol 20%-glycerin 10%-water 70% (w/w), read-out: Solubility): < 100 µg/mL; solubility at 24 h ([1]; solvent mixture, aqueous with cosolvent or surfactant or cyclodextrin, Dehydrated alcohol 20%-glycerin 20%-water 60% (w/w), read-out: Solubility): < 100 µg/mL; solubility at 24 h ([1]; solvent mixture, aqueous with cosolvent or surfactant or cyclodextrin, Dehydrated alcohol 20%-glycerin 30%-water 50% (w/w), read-out: Solubility): < 100 µg/mL; solubility at 24 h ([1]; solvent mixture, aqueous with cosolvent or surfactant or cyclodextrin, Dehydrated alcohol 20%-glycerin 40%-water 40% (w/w), read-out: Solubility): < 100 µg/mL; solubility at 24 h ([1]; solvent mixture, aqueous with cosolvent or surfactant or cyclodextrin, Dehydrated alcohol 20%-glycerin 50%-water 30% (w/w), read-out: Solubility): < 100 µg/mL; solubility at 24 h ([1]; solvent mixture, aqueous with cosolvent or surfactant or cyclodextrin, Dehydrated alcohol 30%-glycerin 10%-water 60% (w/w), read-out: Solubility): 80 µg/mL (≈ 0.0767 mM); solubility at 24 h ([1]; solvent mixture, aqueous with cosolvent or surfactant or cyclodextrin, Dehydrated alcohol 30%-glycerin 20%-water 50% (w/w), read-out: Solubility): 140 µg/mL (≈ 0.134 mM); solubility at 24 h ([1]; solvent mixture, aqueous with cosolvent or surfactant or cyclodextrin, Dehydrated alcohol 30%-glycerin 30%-water 40% (w/w), read-out: Solubility): 650 µg/mL (≈ 0.623 mM); solubility at 24 h ([1]; solvent mixture, aqueous with cosolvent or surfactant or cyclodextrin, Dehydrated alcohol 30%-glycerin 40%-water 30% (w/w), read-out: Solubility): 2260 µg/mL (≈ 2.17 mM); solubility at 24 h ([1]; solvent mixture, aqueous with cosolvent or surfactant or cyclodextrin, Dehydrated alcohol 30%-glycerin 50%-water 20% (w/w), read-out: Solubility): 4080 µg/mL (≈ 3.91 mM); solubility at 24 h ([1]; solvent mixture, aqueous with cosolvent or surfactant or cyclodextrin, Dehydrated alcohol 40%-glycerin 10%-water 50% (w/w), read-out: Solubility): 1580 µg/mL (≈ 1.51 mM); solubility at 24 h ([1]; solvent mixture, aqueous with cosolvent or surfactant or cyclodextrin, Dehydrated alcohol 40%-glycerin 20%-water 40% (w/w), read-out: Solubility): 3400 µg/mL (≈ 3.26 mM); solubility at 24 h ([1]; solvent mixture, aqueous with cosolvent or surfactant or cyclodextrin, Dehydrated alcohol 40%-glycerin 30%-water 30% (w/w), read-out: Solubility): 8840 µg/mL (≈ 8.47 mM); solubility at 24 h ([1]; solvent mixture, aqueous with cosolvent or surfactant or cyclodextrin, Dehydrated alcohol 40%-glycerin 40%-water 20% (w/w), read-out: Solubility): 14700 µg/mL (≈ 14.1 mM); solubility at 24 h ([1]; solvent mixture, aqueous with cosolvent or surfactant or cyclodextrin, Dehydrated alcohol 40%-glycerin 50%-water 10% (w/w), read-out: Solubility): 40000 µg/mL (≈ 38.4 mM); solubility at 24 h ([1]; solvent mixture, aqueous with cosolvent or surfactant or cyclodextrin, Dehydrated alcohol 50%-PEG400 10%-water 40% (w/w), read-out: Solubility): 25100 µg/mL (≈ 24.1 mM); solubility at 24 h ([1]; solvent mixture, aqueous with cosolvent or surfactant or cyclodextrin, Dehydrated alcohol 50%-PEG400 20%-water 30% (w/w), read-out: Solubility): > 51500 µg/mL; solubility at 24 h ([1]; solvent mixture, aqueous with cosolvent or surfactant or cyclodextrin, Dehydrated alcohol 50%-glycerin 10%-water 40% (w/w), read-out: Solubility): 15200 µg/mL (≈ 14.5 mM); solubility at 24 h ([1]; solvent mixture, aqueous with cosolvent or surfactant or cyclodextrin, Dehydrated alcohol 50%-glycerin 20%-water 30% (w/w), read-out: Solubility): 23900 µg/mL (≈ 22.9 mM); solubility at 24 h ([1]; solvent mixture, aqueous with cosolvent or surfactant or cyclodextrin, Dehydrated alcohol 50%-glycerin 30%-water 20% (w/w), read-out: Solubility): > 43600 µg/mL; solubility at 24 h ([1]; solvent mixture, aqueous with cosolvent or surfactant or cyclodextrin, Dehydrated alcohol 50%-glycerin 40%-water 10% (w/w), read-out: Solubility): > 64600 µg/mL; solubility at 24 h ([1]; solvent mixture, organic solvent or mixture, Dehydrated alcohol 50%-glycerin 50%-water 00% (w/w), read-out: Solubility): > 74100 µg/mL; 24 h solubility ([1]; solvent: Dehydrated alcohol): >54.48 mg/mL; 24 h solubility ([1]; solvent: Liquid paraffin, listed as amorphous substance of the compound of formula I): extremely low; 24 h solubility ([1]; solvent: Water, listed as amorphous substance of the compound of formula I): basically insoluble; Purity % ([2]; 0 day): 99.35%; Purity % ([2]; 5 days): 99.34%; Purity % ([2]; 10 days): 99.27%; Purity % ([2]; 30 days): 99.34%; purity (HPLC) ([3]; 3 months): 99.36%; purity (HPLC) ([3]; 6 months): 99.37%; purity (HPLC) ([3]; 9 months): 99.29%; purity (HPLC) ([3]; 25±2° C., RH 60%=5%, 0 month): 99.25%; stability ([3]; long-term, accelerated and high-temperature stability experiments): excellent stability; purity (HPLC) ([4]; 1 months): 99.41%; purity (HPLC) ([4]; 3 months): 99.35%; purity (HPLC) ([4]; 6 months): 99.36%; purity (HPLC) ([4]; 40±2° C., RH 75%=5%, 0 month): 99.25%
